Tests used:
[1] = Molar enthalpy of transition or fusion; conditions: Crystal
[2] = for vapor or sublimation pressure: Liquid, Calculated from knudsen effusion weight loss
[3] = molar heat capacity at constant pressure; conditions: 101.33 kPa, Vacuum adiabatic calorimetry
[4] = molar enthalpy of vaporization or sublimation; conditions: 304.79 K; Liquid; Static calorimetry

CCCCCCCCCC(=O)OCC [ethyl decanoate]
Conditions | Molar enthalpy of transition or fusion [kcal/mol] | molar enthalpy [kcal/mol]
[1] | 7.717 | –
[4] | – | 16.7

[2]
Conditions | Triple point temperature [K] | vapor or sublimation pressure [kPa]
293.77 K | – | 0.00169
298.67 K | – | 0.00267
298.72 K | – | 0.00267
303.68 K | – | 0.00414
308.61 K | – | 0.00648
313.57 K | – | 0.01
318.32 K | – | 0.0152
323.24 K | – | 0.0219
Crystal | 253.6 | –

molar heat capacity at constant pressure [J/K/mol], [3]
Conditions | Crystal | Liquid
5 K | 0.498 | –
10 K | 4.477 | –
15 K | 11.92 | –
20 K | 21.04 | –
25 K | 30.97 | –
30 K | 41.18 | –
35 K | 51.36 | –
40 K | 61.27 | –
45 K | 71.2 | –
50 K | 80.91 | –
60 K | 98.99 | –
70 K | 115.2 | –
80 K | 130.2 | –
90 K | 144.3 | –
100 K | 157.4 | –
110 K | 169.3 | –
120 K | 180 | –
130 K | 189.6 | –
140 K | 198.3 | –
150 K | 206.8 | –
160 K | 214.7 | –
170 K | 222.5 | –
180 K | 230.5 | –
190 K | 238.8 | –
200 K | 247.4 | –
210 K | 256.7 | –
220 K | 266.7 | –
230 K | 277.5 | –
240 K | 288.9 | –
250 K | 301.2 | –
253.6 K | 305.7 | 386.5
260 K | – | 388.1
270 K | – | 391.3
280 K | – | 395.2
290 K | – | 399.6
298.15 K | – | 403.5
300 K | – | 404.4
310 K | – | 409.6
320 K | – | 415
330 K | – | 420.6
340 K | – | 426.4
350 K | – | 432.3
360 K | – | 438.3
370 K | – | 444.5
